Measured values published in US5273992A, “Method for reducing sickle erythrocyte dehydration and delaying the occurrence of erythrocyte sickling in-situ” (Beth Israel Hospital Assoc. Inc., priority 1992, dated 1993).
pIC50: −log10 of the molar value. Where “and” joins values, the source holds several entries; their conditions need not be identical. Identical values can stand only once. Entries after “also recorded” stand apart in the source; their conditions may differ. Like-named read-outs stand apart in the source and are kept apart here.

What was measured:
[1] = target: T1, Ca^2+-activated K+ channel of SS cells (Homo sapiens, UniProt O15554); assay: Displacement of ^125I-ChTX binding in sickle erythrocytes; settings: for ^125I-ChTX displacement, % of total: 90 min
T1 construct: Blood was collected after obtaining informed consent from patients; endogenous in cells; host or cells: erythrocytes (SS) from patients homozygous for Hb S
Experimental: White cells were removed by passing 0.8 mL of packed red cells through a 5 ml syringe containing a mixture of equal parts of alfa-cellulose and microcrystalline cellulose as originally described by Beutler and West [J. Lab. Clin. Med. 88:328-333 (1976)]. Red cells were washed 3 times in binding medium containing 18 mM NaCl, 2 mM KCl, 10 mM tris-Cl, pH 8.0, 230 mM sucrose and 0.25% bovine serum albumin. A suspension was then made in the same medium at 15% Hct. […] Tubes containing cell suspension were gently rotated for 90 min at room temperature. At the end of the incubation, aliquots of 1 ml were pelleted by microfuge and washed 3 times at 4° C. with a solution containing 200 mM NaCl, 10 mM tris-Cl, pH 8.0. The washed red cell pellet was then lysed in 1 ml of 0.01% Acationox®, and counted in a gamma counter. Aliquots of binding medium were counted prior to addition of cells and at the end of the binding assay.
^125 I-ChTX is a specific ligand of the Ca^2 + activated K+ channel of human red cells. […] To examine the interaction between CLT and the Ca^2 +activated K+ channel of SS cells, the question whether CLT can displace ^125 I-ChTX (50 pM) bound to SS cells was tested.

[2] = target: T2, Ca^2+-activated K+ channel (Gardos channel) of sickle erythrocytes (Homo sapiens, UniProt O15554); assay: Ca^2+-activated ^86Rb influx in sickle (SS) erythrocytes; type: cell-based
T2 construct: Blood was collected after obtaining informed consent from patients; endogenous in cells; host or cells: erythrocytes (SS) from patients homozygous for Hb S
Experimental: Patients homozygous for Hb S disease were selected. Blood was collected after obtaining informed consent from patients followed in the Hematology Division Clinic at Brigham and Women's Hospital and in the Boston Comprehensive Sickle Cell Center at Boston City Hospital. None of the patients had been transfused in the preceding 120 days.
Other experiments were carried out in normal saline (140 mM NaCl, 2 mM KCl, 10 mM tris-HCl, pH 8.0). At the end of the incubation, triplicate samples of each cell suspension were spun at 3,000 g for 10 min. The supernatant was then removed and a smaller volume of medium containing A23187 (60 μM CaCl2, and ^86 Rb was added to achieve a final Hct of 4-5%. Aliquots of cell suspension were taken at specified times (1, 3, and 5 min) and spun through 0.8 ml of medium with 5 mM EGTA and a 0.4 ml cushion of butyl-phthalate. The resultant supernatant and the upper layer of oil were carefully removed, the tube contents frozen at -80° C. and the tube tip containing the cell pellet cut off and counted.

[3] = target: T2, Ca^2+-activated K+ channel (Gardos channel) of sickle erythrocytes; assay: as above; type: cell-based; settings: medium 20 mM salt (low ionic strength); for pIC50: Dixon plot analysis, read-out: Inhibition of ^86Rb influx, IC50
[4] = system: SS cells (sickle erythrocytes); type: cell-based, human; settings: for Inhibition of dehydration of SS cells (in words): 60 μmol A23187/L cells, 100 μM CaCl2; for Cell K content at end of incubation: SS cells, A23187 + Ca^2+, average of three experiments (control 279±20, Ca^2+ alone 84.9±24)
Experimental: Cells were incubated for 60 min at 37° C. in a medium containing 140 mM NaCl, 4 mM KCl, 100 μM CaCl2, 1 mM K-phosphate buffer, pH 7.40, 10 mM tris-MOPS, pH 7.40, at 1-2% Hct. A23187 was subsequently added to a final concentration of 60 μmol/l cells under stirring. At the specified time intervals, the cell suspension was diluted with an equal amount of medium containing 5 MM EGTA and 0.1% BSA. The red cells were then washed four times with the same medium at 37° C. This procedure allowed for chelation of extracellular Ca^2 + and removal of A23187. An aliquot of cells washed in this medium was used to measure the distributions of cell volume and hemoglobin concentration with the H2-Technicon blood analyzer, while the remaining cells were washed four times with choline washing solution (144 mM Choline Cl, 1 mM MgCl2, 10 mM tris-MOPS, pH 7.40 at 4° C.) for measurements of internal Na and K contents.
291-300; Ohnishi et al., Biochim Biophys. Acta 1010:199-203 (1989): Horruchi et al., Blood 71:46-51 (1988)]. However, the results are highly dependent on the protocol used for deoxygenation and reoxygenation of SS cells. We reasoned that the inhibitory effect of CLT and other antimycotics on the dehydration mediated by the Ca^2 +-activated K+ channel should be assessed under conditions of maximal activation of this pathway. If the inhibitor is effective in blocking dehydration in these conditions, it should be able to block dehydration due to transient activation of the channel as during sickling. Accordingly, cells were exposed to A23187 in the presence of 100 μM CaCl2 in a medium containing 140 mM NaCl, 4 mM KCI, at pH 7.40, with or without the transport inhibitors.
After removal of ionophore and chelation of Ca, cell volume and hemoglobin concentration were measured on a cell per cell basis with the Technicon H-2 blood analyzer. […] Distribution histograms for red cell volume and hemoglobin concentration are presented in the lower panel. Arbitrarily established gates (hemoglobin concentration<28 and >41 g/dL; cell volume<60 and>120 fL) are used to define hypo- and hyperchromic cells and micro- and macrocytic cells, respectively. The distribution in the control SS cells (incubated with A23187 in the presence of 1 mM EGTA) resembles a teardrop, with reticulocytes and cells with low HC and high MCV in the top side of middle and left quadrant, discocytes in the central quadrant, and dehydrated dense cells in the right side of the middle quadrant. SS cells exposed to A 23187 and Ca^2+ were markedly dehydrated, as shown by the shift of the hemoglobin concentration (HC) histogram to higher values and by the increased HC values (FIG. 4). […] Measurements of cell cation content at the end of the incubation support the view that these effects are due to inhibition of K loss. […]

[5] = target: Gardos channel of sickle erythrocytes (Homo sapiens, UniProt O15554); assay: Membrane potential (Em) of SS cells with activated Gardos channel; type: cell-based
Gardos channel of sickle erythrocytes, sequence (O15554 whole entry): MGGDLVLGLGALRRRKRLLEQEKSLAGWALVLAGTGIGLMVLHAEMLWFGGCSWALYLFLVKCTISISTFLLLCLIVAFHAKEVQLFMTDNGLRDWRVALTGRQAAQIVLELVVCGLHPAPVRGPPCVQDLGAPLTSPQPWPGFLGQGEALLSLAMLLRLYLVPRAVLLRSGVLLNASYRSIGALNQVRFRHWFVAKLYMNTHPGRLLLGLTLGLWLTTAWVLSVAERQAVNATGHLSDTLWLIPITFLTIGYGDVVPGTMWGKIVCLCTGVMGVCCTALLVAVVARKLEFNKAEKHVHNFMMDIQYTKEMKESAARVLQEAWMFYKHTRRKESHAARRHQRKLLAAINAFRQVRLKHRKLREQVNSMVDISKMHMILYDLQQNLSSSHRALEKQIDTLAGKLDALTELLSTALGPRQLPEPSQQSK
Experimental: Measurements of the proton distribution ratio in unbuffered media in the presence of the proton ionophore CCCP allow estimation of the red cell membrane potential (Em). Erythrocytes were washed twice at room temperature with unbuffered medium of the desired composition and added with stirring to 5 ml of the same medium to a final Hct of 5%. All media contained 100 μM ouabain, 10 μM bumetanide, 10 μM DIDS, 10 μM methazolamide and 50 μM CCCP (50 mM stock solution in DMSO. The medium was maintained at 37° C., and pH was recorded for one min prior and 10 min following addition of the red cells. Inhibitors were added to the specified final concentration by appropriate dilution from 10 mM stocks. For internal pH measurements, 20 μl of 10% (v/v) Triton X-100 were added to the cell suspension in unbuffered medium under stirring, and the pH of the resultant lysate measured and assumed to equal pHi. Em was calculated from the equation [formula] [pHi --pHo ], as detailed in Halpern et al, Am. J. Physiol. 257:c986-c996 (1989).
When the Gardos channel is activated, the increased permeability for K+ shifts the membrane potential away from the equilibrium potential for Cl- (ECI) toward the equilibrium potential for K+(EK). This effect is magnified with the Cl-permeability is inhibited by DIDS.

[6] = system: AE1 (band 3) chloride/bichloride exchanger; assay: ^35SO4 influx into AA erythrocytes (AE1 function); type: cell-based, human
Experimental: The protocol used by Schofield et al. [Nature 355:836-838 (1992)] was used to measure ^35 SO2- uptake in AA erythrocytes.
To determine if the inhibition of Ca^2 +-activated ^86 Rb flux was secondary to an inhibitory effect on the membrane Cl-permeability, the effect of the various compounds on the ^35 SO4 influx was assessed. This assay is a measure of function of the major transport system for red cells, the AE1 (band 3) chloride/bichloride exchanger.

[7] = in vivo; cited from earlier work
[8] = system: Ca^2+ activated K+ channel of human red cells; settings: normal red cells; 50 nM cold ChTX; cited from earlier work
[9] = SS erythrocytes, medium 20 mM salt
[10] = SS erythrocytes, medium 20 mM salt, read-out: ^125I-ChTX displacement, IC50
[11] = SS erythrocytes, medium 140 mM salt (normal saline)
[12] = SS erythrocytes, medium 140 mM salt (normal saline), Dixon plot analysis, read-out: Inhibition of ^86Rb influx, IC50
[13] = Inhibition of ^86Rb influx, IC50

Compound: Cc1ncc([N+](=O)[O-])n1CCO [Metronidazole, 2-methyl-5-nitroimidazole-1-ethanol]
- ^125I-ChTX displacement, % of total [1, 9]: 49%
- pIC50 [1, 10]: 6.24
- Inhibition of Ca^2+-activated ^86Rb influx / K+ transport (in words) ([2]; SS erythrocytes): partially inhibited
- Sequence / rank of inhibitory potency on the Gardos pathway ([2]; SS erythrocytes): clotrimazole>miconazole>econazole>metronidazole
- Inhibition of ^86Rb influx, % maximum [2, 11]: 36%
- pIC50 [2, 12]: 6.36
- Inhibition of ^86Rb influx, % maximum [3]: 28%
- pIC50 [3]: 6.07

Compound: Clc1ccccc1C(c1ccccc1)(c1ccccc1)n1ccnc1 [Clotrimazole, 1-[(2-chlorophenyl)diplenylmethyl]-1H-imidazole]
- Inhibition of dehydration of SS cells (in words) ([4]; 10 μM CLT, 50 nM ChTX, listed as CLT): more pronounced than that by 50 nM ChTX; also recorded: substantially prevented dehydration; also recorded: markedly inhibited the dehydration of sickle cells
- Cell K content at end of incubation ([4]; 10 μM CLT): 210±30 mmol/Kg Hb
- ^125I-ChTX displacement (in words) [1]: displaced ^125 I-ChTX in a dose-dependent manner
- ^125I-ChTX displacement, % of total ([1]; sickle erythrocytes): 74.5%
- Effect on K+ permeability and membrane potential (Em) ([5]; SS cells, A23187 and 50 μM CaCl2): markedly reduced K+ permeability and shifted Em from EK
- Inhibitory potency on membrane potential changes ([5]; low ionic strength vs normal saline, listed as CLT): higher in low ionic strength conditions than in normal saline
- Inhibition of Ca^2+-activated ^86Rb influx / K+ transport (in words) [2]: markedly inhibited
- Inhibition of ^86Rb influx, % maximum [2]: 87% and 93%
- Influx of the anion SO4 [6]: not affected

Compound: Clc1ccc(COC(Cn2ccnc2)c2ccc(Cl)cc2Cl)c(Cl)c1 (stereo not shown) [Miconazole]
- Marrow hyoplasia, share of the use cases [7]: 40%
- pIC50 [1]: 6.78
- ^125I-ChTX displacement, % of total ([1]; sickle erythrocytes): 57%
- Inhibition of ^86Rb influx, % maximum [2]: 63% and 49%
- pIC50 [2, 13]: 6.96 and 7.00

Compound: Clc1ccc(COC(Cn2ccnc2)c2ccc(Cl)cc2Cl)cc1 (stereo not shown) [Econazole, 1-[2-[(4-chlorophenyl)methoxyl]-2-(2,14-dichlorophenyl)ethyl]-1H-imidacole]
- pIC50 [1]: 6.69
- ^125I-ChTX displacement, % of total ([1]; sickle erythrocytes): 37%
- Inhibition of ^86Rb influx, % maximum [2]: 31% and 47%
- pIC50 [2, 13]: 6.57 and 6.24

Compound: Cc1ncc([N+](=O)[O-])n1CC(O)CCl (stereo not shown) [Ornidazole]
- Inhibition of ^86Rb influx at 10 μM (in words) ([2]; SS erythrocytes): only marginally
- Inhibition of ^86Rb influx, % maximum [2, 11]: 21%
- Inhibition of ^86Rb influx, % maximum [3]: 11%

Compound: CCS(=O)(=O)CCn1c([N+](=O)[O-])cnc1C [Tinidazole]
- Inhibition of ^86Rb influx at 10 μM (in words) ([2]; SS erythrocytes): only marginally
- Inhibition of ^86Rb influx, % maximum [2, 11]: 3%
- Inhibition of ^86Rb influx, % maximum [3]: 21%

Compound: CHARYBDOTOXIN
- Inhibition of dehydration of SS cells (in words) ([4]; 10 μM CLT, 50 nM ChTX): partially inhibited dehydration
- Cell K content at end of incubation ([4]; 50 nM ChTX): 192.8±39 mmol/Kg Hb
- ^125I-ChTX displacement, % of total [1, 9]: 74.5%
- pIC50 [1, 10]: 10.48
- Total binding displaced by excess cold ChTX [8]: 60-70%
- Inhibition of ^86Rb influx, % maximum [2, 11]: 52%
- pIC50 [2, 12]: 9.44
- Inhibition of ^86Rb influx, % maximum [3]: 95.5%
- pIC50 [3]: 10.02

Compound: OC(Cn1cncn1)(Cn1cncn1)c1ccc(F)cc1F [Fluconazole]
- ^125I-ChTX displacement, % of total [1, 9]: 19%
- Inhibition of Ca^2+-activated ^86Rb influx / K+ transport (in words) ([2]; SS erythrocytes): non-active
- Inhibition of Ca^2+-activated ^86Rb influx / K+ transport (in words) ([2]; SS erythrocytes, listed as fluconazole): no inhibition
- Inhibition of ^86Rb influx, % maximum [2, 11]: 0%
- Inhibition of ^86Rb influx, % maximum [3]: 0%
